{"source": "PubChem BioAssay AID1963853", "about": "(Molecular Pharmacology Branch, DTP, NCI, 2024)", "test_system": "266295-075-R-J1-PDC spheroid viability", "test": "Anticancer human tumor 266295-075-R-J1-PDC patient-derived head and neck squamous carcinoma cell line growth inhibition [POLQ]", "settings": "spheroids with HUVEC and MSC; for pIC50: curve of first compound; for viability, T/C: stronger effect = lower value", "procedure,_shortened": "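Growth inhibition in 3D: complex spheroids (tumor PDC, HUVEC, MSC) treated with POLQ inhibitor combinations; where Cmax unknown, highest tested concentration 10 microM, except SN-38 at 1 microM.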", "note": "pIC50: −log10 of the molar value.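 Also: spheroids exposed to compounds for seven days before readout.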", "data": [{"smiles": "CCCS(=O)(=O)Nc1ccc(F)c(C(=O)c2c[nH]c3ncc(-c4ccc(Cl)cc4)cc23)c1F", "note": "+ Cc1cccc(N(C)C(=O)C2C(O)CCN2c2nc(C)cc(C(F)(F)F)c2C#N)c1", "values": [{"measurement": "pIC50", "setting": "second compound 0.0316 µM", "result": "< 5.00"}, {"measurement": "pIC50", "setting": "second compound 0.1 µM", "result": "< 5.00"}, {"measurement": "pIC50", "setting": "second compound 0.316 µM", "result": "< 5.00"}, {"measurement": "pIC50", "setting": "second compound 1 µM", "result": "< 5.00"}, {"measurement": "pIC50", "setting": "second compound 3.16 µM", "result": "< 5.00"}, {"measurement": "pIC50", "setting": "second compound 10 µM", "result": "< 5.00"}, {"measurement": "viability, T/C", "setting": "second compound 0.0316 µM, first compound 0.0316 µM", "result": 108, "unit": "%"}, {"measurement": "viability, T/C", "setting": "second compound 0.0316 µM, first compound 0.1 µM", "result": 97.7, "unit": "%"}, {"measurement": "viability, T/C", "setting": "second compound 0.0316 µM, first compound 0.316 µM", "result": 122, "unit": "%"}, {"measurement": "viability, T/C", "setting": "second compound 0.0316 µM, first compound 1 µM", "result": 161, "unit": "%"}, {"measurement": "viability, T/C", "setting": "second compound 0.0316 µM, first compound 3.16 µM", "result": 150, "unit": "%"}, {"measurement": "viability, T/C", "setting": "second compound 0.0316 µM, first compound 10 µM", "result": 126, "unit": "%"}, {"measurement": "viability, T/C", "setting": "second compound 0.1 µM, first compound 0.0316 µM", "result": 127, "unit": "%"}, {"measurement": "viability, T/C", "setting": "second compound 0.1 µM, first compound 0.1 µM", "result": 81.3, "unit": "%"}, {"measurement": "viability, T/C", "setting": "second compound 0.1 µM, first compound 0.316 µM", "result": 92.8, "unit": "%"}, {"measurement": "viability, T/C", "setting": "second compound 0.1 µM, first compound 1 µM", "result": 126, "unit": "%"}, {"measurement": "viability, T/C", "setting": "second compound 0.1 µM, first compound 3.16 µM", "result": 187, "unit": "%"}, {"measurement": "viability, T/C", "setting": "second compound 0.1 µM, first compound 10 µM", "result": 142, "unit": "%"}, {"measurement": "viability, T/C", "setting": "second compound 0.316 µM, first compound 0.0316 µM", "result": 95.5, "unit": "%"}, {"measurement": "viability, T/C", "setting": "second compound 0.316 µM, first compound 0.1 µM", "result": 93, "unit": "%"}, {"measurement": "viability, T/C", "setting": "second compound 0.316 µM, first compound 0.316 µM", "result": 98.1, "unit": "%"}, {"measurement": "viability, T/C", "setting": "second compound 0.316 µM, first compound 1 µM", "result": 134, "unit": "%"}, {"measurement": "viability, T/C", "setting": "second compound 0.316 µM, first compound 3.16 µM", "result": 171, "unit": "%"}, {"measurement": "viability, T/C", "setting": "second compound 0.316 µM, first compound 10 µM", "result": 139, "unit": "%"}, {"measurement": "viability, T/C", "setting": "second compound 1 µM, first compound 0.0316 µM", "result": 118, "unit": "%"}, {"measurement": "viability, T/C", "setting": "second compound 1 µM, first compound 0.1 µM", "result": 76.5, "unit": "%"}, {"measurement": "viability, T/C", "setting": "second compound 1 µM, first compound 0.316 µM", "result": 95.5, "unit": "%"}, {"measurement": "viability, T/C", "setting": "second compound 1 µM, first compound 1 µM", "result": 132, "unit": "%"}, {"measurement": "viability, T/C", "setting": "second compound 1 µM, first compound 3.16 µM", "result": 158, "unit": "%"}, {"measurement": "viability, T/C", "setting": "second compound 1 µM, first compound 10 µM", "result": 142, "unit": "%"}, {"measurement": "viability, T/C", "setting": "second compound 3.16 µM, first compound 0.0316 µM", "result": 106, "unit": "%"}, {"measurement": "viability, T/C", "setting": "second compound 3.16 µM, first compound 0.1 µM", "result": 100, "unit": "%"}, {"measurement": "viability, T/C", "setting": "second compound 3.16 µM, first compound 0.316 µM", "result": 96.6, "unit": "%"}, {"measurement": "viability, T/C", "setting": "second compound 3.16 µM, first compound 1 µM", "result": 111, "unit": "%"}, {"measurement": "viability, T/C", "setting": "second compound 3.16 µM, first compound 3.16 µM", "result": 155, "unit": "%"}, {"measurement": "viability, T/C", "setting": "second compound 3.16 µM, first compound 10 µM", "result": 132, "unit": "%"}, {"measurement": "viability, T/C", "setting": "second compound 10 µM, first compound 0.0316 µM", "result": 96.3, "unit": "%"}, {"measurement": "viability, T/C", "setting": "second compound 10 µM, first compound 0.1 µM", "result": 137, "unit": "%"}, {"measurement": "viability, T/C", "setting": "second compound 10 µM, first compound 0.316 µM", "result": 113, "unit": "%"}, {"measurement": "viability, T/C", "setting": "second compound 10 µM, first compound 1 µM", "result": 111, "unit": "%"}, {"measurement": "viability, T/C", "setting": "second compound 10 µM, first compound 3.16 µM", "result": 187, "unit": "%"}, {"measurement": "viability, T/C", "setting": "second compound 10 µM, first compound 10 µM", "result": 134, "unit": "%"}]}]}
